Where two headings read alike, the source gives them in different places.
Experiments:
[1] = system: P. falciparum 3D7/MRA-102; assay: In vitro antiplasmodial activity (parasite growth, 48 h); type: cell-based; details: Plasmodium falciparum, read-out: Pf IC50 ± SD
Description: The following reagent was obtained through BEI Resources, NIAID, NIH: Plasmodium falciparum, strain 3D7, MRA-102, contributed by Daniel J. Carucci. Based on a modified procedure by Trager and Jensen, asexual erythrocytic stages of Pf were continuously maintained through in vitro culture. The chloroquine-sensitive strain is cultured thanks to human red blood cells (A+) and a culture medium mainly composed of RPMI 1640 (Gibco, Fisher Scientific, Loughborough, UK) containing NaHCO3 (32 mM), HEPES (25 mM), and L-glutamine. The medium was supplemented with 1.76 g/L of glucose (Sigma-Aldrich, […], Belgium), […] of hypoxanthine (Sigma-Aldrich), 100 mg/L of gentamycin (Gibco, Fisher Scientific) and 10% human pooled serum (A+), as previously described. Solutions of pure products were prepared in DMSO at 10 mg/mL. As DMSO is recognized as toxic for parasites, the highest concentration of solvent to which they were exposed was 1%. Thus, primary solutions were diluted in a culture medium to reach 100 μg/mL in the first row of a 96-well plate. Therefore, each test sample was applied in a series of eight 2-fold dilutions and tested in triplicate. The assay was performed with 2% parasitaemia and 1% haematocrit. After 48 h of incubation, plates were frozen at -20 °C for 12 h and parasite growth was quantified according to the methods described by Makler et al.. Chloroquine (Sigma-Aldrich) was used as positive standards in all experiments, with initial concentrations at 100 ng/mL. Infected and uninfected red blood cells (RBC) were used as positive (100% growth) and negative controls (0% growth). Consequently, comparison between infected erythrocytes and samples allowed us to estimate the growth inhibition. IC50 values were calculated from linear regression.

[2] = set-up: method as in PMID 35328580; details: experimentally determined lipophilicity, RP-HPLC; cited from earlier work
[3] = system: human monocytic leukemia cell line THP-1; set-up: method as in PMID 35328580; details: cell viability, THP-1 cells, n = 3; cited from earlier work
[4] = chloroquine-sensitive strain 3D7/MRA-102, 48 h incubation, n = 3

Row | SMILES | IC50 [1, 4] | logk [2] | IC50 [3] | IC50 ([1]; 3D7, 48 h)
1 | O=C(/C=C/c1ccc(Cl)c(Cl)c1)Nc1ccccc1 [2a] | 21.4 ± 2.6 µM | 0.6199 | > 10 µM | 
2 | O=C(/C=C/c1ccc(Cl)cc1)Nc1cccc(Cl)c1 [1f] | 12.7 ± 2.1 µM | 0.6192 | > 10 µM | 
3 | O=C(/C=C/c1ccc(Cl)c(Cl)c1)Nc1cccc(Cl)c1 [2f] | 10.5 ± 2 µM | 0.7404 | > 10 µM | 
4 | O=C(/C=C/c1ccc(Cl)c(Cl)c1)Nc1ccccc1F [2b] | > 30 µM | 0.7764 | > 10 µM | 
5 | O=C(/C=C/c1ccc(Cl)cc1)Nc1ccccc1F [1b] | > 30 µM | 0.6459 | > 10 µM | 
6 | O=C(/C=C/c1ccc(Cl)cc1)Nc1ccc(Cl)cc1 [1g] | 29.2 ± 2.4 µM | 0.5598 | > 10 µM | 
7 | O=C(/C=C/c1ccc(Cl)cc1)Nc1cc(Cl)ccc1Cl [1n] | > 30 µM | 0.9507 | > 10 µM | 
8 | O=C(/C=C/c1ccc(Cl)c(Cl)c1)Nc1cc(Cl)ccc1Cl [2n] | > 30 µM | 1.0840 | > 10 µM | 
9 | O=C(/C=C/c1ccc(Cl)c(Cl)c1)Nc1ccc(Cl)cc1 [2g] | 7.9 ± 1.7 µM | 0.6786 | > 10 µM | 
10 | O=C(/C=C/c1ccc(Cl)c(Cl)c1)Nc1cccc(C(F)(F)F)c1 [2i] | 14.2 ± 2.3 µM | 0.9873 | > 10 µM | 
11 | O=C(/C=C/c1ccc(Cl)cc1)Nc1ccccc1 [1a] | > 30 µM | 0.4490 | > 10 µM | 
12 | O=C(/C=C/c1ccc(Cl)c(Cl)c1)Nc1ccc(F)cc1 [2d] | 14.1 ± 3.1 µM | 0.9009 | > 10 µM | 
13 | O=C(/C=C/c1ccc(Cl)cc1)Nc1ccccc1C(F)(F)F [1h] | > 30 µM | 0.5506 | > 10 µM | 
14 | CCN(CC)CCCC(C)Nc1ccnc2cc(Cl)ccc12 (stereo not shown) [CQ, chloroquine, reference compound] |  |  |  | 0.5 ± 0.2 µM
15 | O=C(/C=C/c1ccc(Cl)cc1)Nc1ccc(F)cc1 [1d] | > 30 µM | 0.7808 | > 10 µM | 
16 | O=C(/C=C/c1ccc(Cl)c(Cl)c1)Nc1ccccc1Cl [2e] | > 30 µM | 0.6488 | > 10 µM | 
17 | O=C(/C=C/c1ccc(Cl)cc1)Nc1ccc(C(F)(F)F)cc1 [1j] | > 30 µM | 0.9078 | > 10 µM | 
18 | O=C(/C=C/c1ccc(Cl)cc1)Nc1cccc(C(F)(F)F)c1 [1i] | 14.8 ± 3.1 µM | 0.8612 | > 10 µM | 
19 | O=C(/C=C/c1ccc(Cl)c(Cl)c1)Nc1ccc(C(F)(F)F)cc1 [2j] | 16 ± 2.5 µM | 1.0364 | > 10 µM | 
20 | O=C(/C=C/c1ccc(Cl)cc1)Nc1ccccc1Cl [1e] | > 30 µM | 0.5241 | > 10 µM | 
21 | O=C(/C=C/c1ccc(Cl)cc1)Nc1ccc(OC(F)(F)F)cc1Br [1q] | 24.8 ± 2.5 µM | 1.0278 | > 10 µM | 
22 | O=C(/C=C/c1ccc(Cl)cc1)Nc1ccc(F)cc1F [1k] | 11 ± 2.1 µM | 0.5746 | > 10 µM | 
23 | O=C(/C=C/c1ccc(Cl)c(Cl)c1)Nc1ccc(OC(F)(F)F)cc1Br [2q] | 23 ± 2.7 µM | 1.2065 | > 10 µM | 
24 | O=C(/C=C/c1ccc(Cl)c(Cl)c1)Nc1ccccc1C(F)(F)F [2h] | > 30 µM | 0.6836 | > 10 µM | 

The next lines start with results.

Row | IC50 [1, 4] | SMILES | logk [2] | IC50 [3] | IC50 ([1]; 3D7, 48 h)
25 | 6.9 ± 2.1 µM | O=C(/C=C/c1ccc(Cl)cc1)Nc1cccc(F)c1 [1c] | 0.7859 | > 10 µM | 
26 | 3.4 ± 0.9 µM | O=C(/C=C/c1ccc(Cl)c(Cl)c1)Nc1ccc(Cl)cc1Cl [2m] | 1.0932 | > 10 µM | 
27 | 1.9 ± 0.06 µM | O=C(/C=C/c1ccc(Cl)c(Cl)c1)Nc1ccc(F)cc1F [2k, (2E)-3-(3,4-dichlorophenyl)-N-(2,4-difluoro-phenyl)prop-2-enamide] | 0.6989 | > 10 µM | 
28 | 2.5 ± 0.9 µM | O=C(/C=C/c1ccc(Cl)cc1)Nc1cc(C(F)(F)F)cc(C(F)(F)F)c1 [1p, (2E)-N-[3,5-bis(trifluoromethyl)phenyl]-3-(4-chlorophenyl)prop-2-enamide] | 1.3064 | > 10 µM | 
29 | 3.8 ± 1.1 µM | O=C(/C=C/c1ccc(Cl)c(Cl)c1)Nc1cc(Cl)cc(Cl)c1 [2o] | 1.3043 | > 10 µM | 
30 | 3.4 ± 1 µM | O=C(/C=C/c1ccc(Cl)c(Cl)c1)Nc1cccc(F)c1 [2c] | 0.9071 | > 10 µM | 
31 | 1.6 ± 0.07 µM | O=C(/C=C/c1ccc(Cl)c(Cl)c1)Nc1cc(C(F)(F)F)cc(C(F)(F)F)c1 [2p, (2E)-N-[3,5-bis(trifluoromethyl)phenyl]-3-(3,4-dichloro-phenyl)prop-2-enamide] | 1.4731 | > 10 µM | 
32 | 1.8 ± 0.08 µM | O=C(/C=C/c1ccc(Cl)c(Cl)c1)Nc1cc(F)cc(F)c1 [2l, (2E)-3-(3,4-dichlorophenyl)-N-(3,5-difluoro-phenyl)prop-2-enamide] | 0.9298 | > 10 µM | 
33 | 5.2 ± 0.9 µM | O=C(/C=C/c1ccc(Cl)cc1)Nc1cc(F)cc(F)c1 [1l] | 0.8054 | > 10 µM | 
34 | 4.4 ± 1.8 µM | O=C(/C=C/c1ccc(Cl)cc1)Nc1cc(Cl)cc(Cl)c1 [1o] | 1.1899 | > 10 µM | 
35 | 4.6 ± 1.8 µM | O=C(/C=C/c1ccc(Cl)cc1)Nc1ccc(Cl)cc1Cl [1m] | 0.9665 | > 10 µM | 

From paper PMC9968098, “Towards Arginase Inhibition: Hybrid SAR Protocol for Property Mapping of Chlorinated N-arylcinnamamides” (International Journal of Molecular Sciences, 2023)
